# What was measured:
# Format in all cases: cell-based
# [1] = test system: high HER2 tumor cell line SK-BR-3; experiment: Effect of small molecules on SK-BR-3 cell proliferation (CellTiter-Glo); conditions: SK-BR-3, 120 h incubation, relative biological activity with Dxd as control sample
# Procedure: Study Purpose: In this experiment, cell viability was detected using CellTiter-Glo to evaluate the effects of the small molecule compounds on the proliferation of a high HER2 tumor cell line SK-BR-3, and to analyze the effects of the small molecule compounds on the proliferation of tumor cells.
# • (1) Microscopic examination of cells • (2) Digestion: digested using 2 mL 0.25% trypsin for 3 minutes; • (3) Centrifuge: 1000 rpm for 5 min; • (4) Cell counting • A. Cell dilution: • B. Cell plating: in 100 μl/well • C. Incubation: 37° C., 5% CO2, overnight
# • (1) Microscopic examination • (2) Drug preparation: • A. Preparation of Buffer for preparation of samples: the desired amount of Buffer for preparation of samples was prepared using the culture medium (10% FBS) for the testing cells; • B. Sample preparation: the sample was diluted from the first concentration to the desired concentration in a 96-well deep-well Plate.
# Positive control Puromycin: A stock solution of 2.5 mg/ml was used, and diluted with the cell medium. A dilution of 250-fold was preformed, and then a dilution of 2-fold was preformed when applying the compounds to reach the testing concentration 5 μg/ml for puromycin. • (3) Application of the compounds: for each concentration of the diluted series, the compound was applied in triplicate. In 100 μl/well. • (4) After the drug was added, the cells were incubated in the incubator for 120 h.
# • (1) Preparation of detection reagents: CellTiter-Glo Luminescent Cell Viability Assay detection reagent was allowed to warm to room temperature with protection from light • (2) Cell preparation: The cells to be tested were taken out from the incubator and equilibrated at room temperature (25° C.) 30 min. • (3) ATP detection: Discard the culture medium and 100 μl/well DMEM was added, 50 μl/hole CTG was added into 96-well plate, protected from light using aluminum foil and oscillated using a vortex oscillator at room temperature of 200 rpm for 10 min. • (4) Detection procedure: After setting up the procedure, the black-wall clear-bottom plate was placed in the instrument without its cover. • (5) Data acquisition.
# GraphPad software was used to process the data. […] If necessary, the relative biological activity of sample A, i.e., ratio activity was calculated. Dxd was used as the control sample for the ratio activity calculation.
# Cell proliferation inhibition rate (%)=([…])/(luminescence value of blank control group−luminescence value of puro group)×100; wherein the puro group refers to the group treated with puromycin
# R^2 Value ≥0.950; CV % between parallel pores ≤30%.
# [2] = test system: SK-BR-3 HER2-high cell line; experiment: Effect of HER2-targeting conjugates on cell proliferation (CellTiter-Glo), SK-BR-3; conditions: SK-BR-3, 120 h
# Procedure: (§1) Study Purpose: Cell viability was detected by CellTiter-Glo assay to evaluate the effects of the ADCs on the proliferation of two high HER2 tumor cell lines SK-BR-3, NCI-N87 and a HER2-negative tumor cell line MDA-MB-468, and to analyze the effects of the ADCs on the proliferation of tumor cells.
# (§2) Positive control Puromycin: A stock solution of 10 mg/ml was used, and diluted with the cell medium. A dilution of 100-fold was preformed, and then a dilution of 10-fold was preformed when applying the compounds to reach the testing concentration 5 μg/ml for puromycin. • (4) Application of the compounds: for each concentration of the diluted series, the compound was applied in triplicate. […]
# [3] = test system: NCI-N87 HER2-high cell line; experiment: Effect of HER2-targeting conjugates on cell proliferation (CellTiter-Glo), NCI-N87; conditions: NCI-N87, 120 h
# Procedure: as §1, §2
SMILES,Ratio activity (%) [1] [%],IC50 [2] [nM],IC50 [3] [nM]
CC[C@@]1(O)C(=O)OCc2c1cc1n(c2=O)Cc2c-1nc1cc(F)c(Br)c3c1c2[C@H](NC(=O)C[C@H](C)O)CC3 [C600],0.62,,
CC[C@@]1(O)C(=O)OCc2c1cc1n(c2=O)Cc2c-1nc1cc(F)c(Br)c3c1c2[C@H](NC(=O)C[C@@H](C)O)CC3 [C602],0.29,,
CC[C@@]1(O)C(=O)OCc2c1cc1n(c2=O)Cc2c-1nc1cc(F)c(Cl)c3c1c2[C@@H](NC(=O)[C@H](O)C(F)(F)F)CC3 [C626],0.54,,
CC[C@@]1(O)C(=O)OCc2c1cc1n(c2=O)Cc2c-1nc1cc(F)c(Cl)c3c1c2[C@@H](NC(=O)CCCO)CC3 [C679],0.49,,
CC[C@@]1(O)C(=O)OCc2c1cc1n(c2=O)Cc2c-1nc1cc(F)c(Cl)c3c1c2[C@H](N)CC3 [C731],0.82,,
CC[C@@]1(O)C(=O)OCc2c1cc1n(c2=O)Cc2c-1nc1cc(F)c(C)c3c1c2[C@@H](NC(=O)CO)CC3 [Dxd],1,1.47,4.68
